# According to publication PMC8137473, “Preclinical trial of a MAP4K4 inhibitor to reduce infarct size in the pig: does cardioprotection in human stem cell-derived myocytes predict success in large mammals?” (Basic Research in Cardiology, 2021):
# Values joined by “and” are separate entries in the source; they are usually repeats but may differ in a detail not shown here. Identical values can stand only once.
# Legend:
# [1] = plasma levels of DMX-5804 in swine during DMX-10001 infusion (efficacy study); format: in vivo, pig
# Procedure: Compound concentrations after dosing were measured as follows by liquid chromatography–mass spectrometry (Pharmidex, London, UK). To 50 µL aliquots of plasma was added 200 µL of internal standard solution (methanol containing 500 ng/mL tolbutamide). Samples were then mixed (150 rpm, 20 min) and centrifuged (3000 rpm, 15 min). 75 µL of the resulting supernatant was added to 75 µL 10 mM ammonium acetate + 0.5% ammonia) and mixed (450 rpm, 15 min). Calibration standards covering the expected concentration range were prepared by spiking analyte into control matrix, with extraction and analysis in the same way as the plasma samples.
# Analysis was done by liquid chromatography–mass spectrometry using a Shimadzu Nexera X2 ultra-high-pressure liquid chromatography system coupled to a Shimadzu LCMS 8060 triple quadruple mass spectrometer (Shimadzu, Milton Keynes, UK) with Waters Acquity BEH C18 (50 × 2.1)mm, 1.7 µm column (Waters, Elstree, UK) and mobile phase components 10 mM ammonium acetate + 0.5% ammonia (A) and methanol + 0.5% ammmonia (B). Gradient was 0–0.5 min 30% B; 0.5 to 2.5 min increase to 80% B; 2.5–2.6 min increase to 98% B; 2.6–3 min 98% B; 3–3.1 min decrease to 30% B; 3.1–3.5 min 30% B. Flow rate was 0.4 mL/min. Injection volume was typically 5 µL. Detection was by multiple reaction monitoring, DMX-5804 361.9 > 304.1 (positive ion), DMX-10001 470.1 > 258.0 (negative ion), and tolbutamide 271.0 > 91.0 (positive ion). Retention times were DMX-5804 2.9 min, DMX-10001 2.1 min, and tolbutamide 1.8 min. Data processing was done by Shimadzu LabSolutions Software (Shimadzu, Milton Keynes, UK).
# Results were corrected for plasma protein binding by rapid equilibrium dialysis to calculate free drug levels, and were subjected to iterative computer modeling (XenoGesis, Alderley Park, UK) using Phoenix64 WinNonlin (Certara, Princeton, NJ), to devise the infusion protocol.
# At several time-points (see Fig. 2), blood samples were taken in lithium-heparin-coated tubes (BD, Plymouth, UK) to analyze plasma levels of DMX-10001 (pro-drug) and DMX-5804 (active compound) and in EDTA-coated tubes (BD, Plymouth, UK) to measure heart-type fatty acid binding protein (hFABP). All blood samples were kept on ice immediately after withdrawal and were centrifuged for 10 min at 3000 rpm and 4 °C within 6 h. Plasma was aliquoted and cryopreserved at − 80 °C until analysis. Levels of DMX-10001 and DMX-5804 were determined by liquid chromatography–mass spectrometry (Pharmidex, London, UK). Porcine hFABP was analyzed as described: plasma samples were thawed on ice, diluted 10 × using the standard diluent provided with the kit, and analyzed by enzyme-linked immunosorbent assays according to the manufacturer’s instructions (Life Diagnostics, West Chester, PA). Absorbance was measured at 450 nm with a microplate photometer (Multiskan EX, Thermo Scientific, Etten-Leur, The Netherlands).
# [2] = test system: mouse myocardial infarction; design: method as in PMID 30853557; settings: mice, even given an hour after reperfusion; cited from earlier work
# [3] = design: method as in PMID 30853557; settings: mice, twice daily oral dosing of DMX-5804; cited from earlier work
# aqueous solubility = format: physicochemical
# Procedure: The chemical structures of DMX-5804 and DMX-10001 are compared in Fig. 1a, highlighting the phosphate moiety of the pro-drug. The aqueous solubility of DMX-10001 was > 400-fold greater than that of DMX-5804, allowing it to be infused i.v. without prohibitive fluid volumes. Cleavage to DMX-5804 was detectable in rats within 5 min and largely complete within 60 min (Fig. 1b). Data from i.v. infusion at a range of dose levels in the pig were simultaneously fit to a three-compartment pharmacokinetic model. Plasma protein binding in pig was used to determine free drug levels (not shown). Various dosing regimens were simulated to avoid an initial spike in DMX-5804 whilst rapidly achieving the efficacious drug levels seen in mice after oral gavage (Fig. 1c).
# MAP4K4 = MAP4K4 (Homo sapiens, UniProt O95819); experiment: cell-free biochemical assay, MAP4K4 inhibition; settings: cell-free biochemical assays; read-out: IC50 against MAP4K4
# MAP4K4, sequence (O95819 whole entry, species assumed, the tested form may be a part): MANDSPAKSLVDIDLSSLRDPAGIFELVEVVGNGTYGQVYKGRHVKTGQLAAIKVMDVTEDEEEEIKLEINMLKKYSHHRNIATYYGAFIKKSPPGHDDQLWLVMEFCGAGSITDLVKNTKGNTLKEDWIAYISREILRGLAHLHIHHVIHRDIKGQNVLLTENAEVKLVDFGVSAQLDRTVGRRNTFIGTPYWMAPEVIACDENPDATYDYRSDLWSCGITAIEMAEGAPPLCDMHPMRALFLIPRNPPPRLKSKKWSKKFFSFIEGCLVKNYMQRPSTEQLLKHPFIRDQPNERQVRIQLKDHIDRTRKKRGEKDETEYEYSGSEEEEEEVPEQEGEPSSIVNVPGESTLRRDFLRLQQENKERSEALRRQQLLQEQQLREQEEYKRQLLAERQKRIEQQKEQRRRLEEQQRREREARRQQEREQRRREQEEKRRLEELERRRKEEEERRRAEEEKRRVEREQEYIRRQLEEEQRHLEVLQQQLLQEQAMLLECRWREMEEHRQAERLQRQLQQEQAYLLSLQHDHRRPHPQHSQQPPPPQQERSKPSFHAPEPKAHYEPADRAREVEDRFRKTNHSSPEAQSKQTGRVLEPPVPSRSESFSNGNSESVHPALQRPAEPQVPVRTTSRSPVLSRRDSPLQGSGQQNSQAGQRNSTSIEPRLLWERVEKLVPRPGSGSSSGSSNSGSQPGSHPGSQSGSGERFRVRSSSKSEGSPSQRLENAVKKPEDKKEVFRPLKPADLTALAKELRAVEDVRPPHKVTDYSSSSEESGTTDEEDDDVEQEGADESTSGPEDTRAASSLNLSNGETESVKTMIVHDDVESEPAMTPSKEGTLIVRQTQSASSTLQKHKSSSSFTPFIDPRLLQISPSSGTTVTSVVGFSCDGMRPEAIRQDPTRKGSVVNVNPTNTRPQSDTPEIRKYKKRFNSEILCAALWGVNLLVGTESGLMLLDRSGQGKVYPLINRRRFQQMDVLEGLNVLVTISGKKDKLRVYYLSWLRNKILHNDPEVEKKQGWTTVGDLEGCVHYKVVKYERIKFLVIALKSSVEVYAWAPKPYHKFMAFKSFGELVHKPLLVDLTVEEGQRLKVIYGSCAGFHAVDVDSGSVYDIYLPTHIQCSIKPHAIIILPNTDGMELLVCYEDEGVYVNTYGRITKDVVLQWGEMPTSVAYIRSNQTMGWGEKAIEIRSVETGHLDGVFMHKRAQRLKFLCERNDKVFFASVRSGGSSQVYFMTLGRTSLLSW
# Description: DMX-10001, a rapidly hydrolyzed phosphate pro-drug of DMX-5804, was produced by Domainex Ltd, by a modification of the latter’s synthetic route, attaching a hydrolysable phosphate group via a linker to the core of DMX-5804 (Fig. 1a). This removes a key hydrogen bonding group and prevents DMX-10001 from binding to the hinge region of the MAP4K4 kinase domain. […] Furthermore, this modest value is likely driven by minute levels of DMX-5804 either present in the sample or generated during by hydrolysis during the assay.
# hPSC-CMs = test system: hPSC-CMs; design: method as in PMID 30853557; settings: cited from earlier work
# [4] = test system: engineered human heart tissue; design: method as in PMID 30853557; settings: cited from earlier work
# 376 kinases = test system: 376 kinases; design: method as in PMID 30853557; settings: cited from earlier work
# pigs = settings: cited from earlier work; for cardioprotection findings in pigs: 16 (TRO40303), 5, 20 (cyclosporine), 21, 29 (cariporide)
# humans = settings: cited from earlier work; for cardioprotection in human trials: 16 (TRO40303), 5, 20 (cyclosporine), 21, 29 (cariporide)
# [5] = pigs, pro-drug DMX-10001 infusion (60 mg/kg/h 0.5 h + 17 mg/kg/h 23.5 h)
molecule,measurement,setting,value
COCCOc1ccc(-c2cn(-c3ccccc3)c3nc[nH]c(=O)c23)cc1 [DMX-5804],"target level of DMX-5804, based on successful reduction of IS in mice",[1]; after infusion with DMX-10001,achieved in all animals
same,levels of DMX-5804 generated in pigs relative to those in mice,[1]; at the corresponding times after injury,at least tenfold
same,free AUC0-24 of DMX-5804,[1]; [5],"27,900 h.nM"
same,free Cav of DMX-5804,[1]; [5],"1,160 nM"
same,DMX-5804 concentrations relative to the levels that rescued hPSC-CMs and reduced IS in mice,"[1]; swine, all times tested beginning 30 min after the start of DMX-10001 infusion",> fivefold
same,reduction of infarct size (IS),[2],50% and > 50%
same,free AUC0–22 of DMX-5804,[3],"2,200 h.nM"
same,aqueous solubility,aqueous solubility,inadequate for i.v. delivery
same,IC50,MAP4K4,3 nM
same,death from oxidative stress in hPSC-CMs,hPSC-CMs,suppressed death from oxidative stress
same,EC50,"hPSC-CMs; vCor.4U cells treated with 400 μM H2O2, read-out: EC50 for reducing cell death",500 nM
same,cell death in engineered human heart tissue,[4],blocked cell death
same,selectivity among 376 kinases,376 kinases,interfering potently just with MINK1/MAP4K6 and TNIK/MAP4K7
CC(C)CCC[C@@H](C)[C@H]1CC[C@H]2[C@@H]3CC/C(=N\O)[C@](C)(CCCO)[C@H]3CC[C@]12C [TRO40303],cardioprotection findings in pigs,pigs,weak or negative findings
same,cardioprotection in human trials,humans,failures of cardioprotection
Nc1ncnc2c1ncn2[C@@H]1O[C@H](CO)[C@@H](O)[C@H]1O [adenosine],protection in swine,pigs; bolus,gave no protection
CC(C)c1ccc(C(=O)NC(=N)N)cc1S(C)(=O)=O [cariporide],cardioprotection findings in pigs,pigs,weak or negative findings
same,cardioprotection in human trials,humans,failures of cardioprotection
liraglutide,results in pigs,pigs,negative results
same,myocardial salvage in humans,humans,improved myocardial salvage
